Data taken from patent US11166940B2, “Treatment of cardiac disorders by blocking SK4 potassium channel” (Ramot at Tel-Aviv University Ltd., priority 2016, dated 2021).

What was measured:
[1] = tested on: normal hiPSC-CMs; assay: Spontaneous APs in hiPS-CMs derived from normal individuals; assay type: cell-based, human; settings: 5 μM TRAM-34 added to 3 μM isoproterenol
Procedure: In all experiments, the coverslips were perfused at 33° C. with an external solution containing (in mM): 140 NaCl, 4 KCl, 11 Glucose, 1.2 MgCl2, 1.8 CaCl2, 5.5 HEPES titrated to pH 7.4 with NaOH and adjusted at 320 mOsm with sucrose.
FIG. 4E (Left) presents representative traces of spontaneous APs recorded in hiPS-CM derived from a normal individual. […] FIG. 4E (Right) are bar graphs presenting data summary of pacing rate (normalized to Ctrl; one-way ANOVA **P=0.0071, n=14), DD slope (paired t-test, ***P<0.0001, n=14) and APD50 (one-way ANOVA *P=0.0243, n=18).

[2] = tested on: If and INCX currents; settings: 5 μM TRAM-34; cited from earlier work
[3] = tested on: intact SAN from CASQ2 D307H KI mice; assay: Spontaneous calcium transients ex vivo in intact SAN tissue from CASQ2-D307H KI mice (Fluo-4 AM); assay type: cell-based, mouse; settings: 2 μM TRAM-34 added to 100 nM isoproterenol
Procedure: SAN tissue preparations were dissected ex vivo from WT and CASQ2-D307H KI mice as described in Torrente, A. G., et al. Proc Natl Acad Sci USA 112, 9769-9774 (2015). The dissected whole SAN tissue was pinned on a hand-made chamber and was incubated in a Tyrode solution containing 10 μM Fluo-4 AM (Thermo Fisher Scientific) and pluronic acid for 1 hour at 37° C. in the dark. The SAN tissue was washed in Tyrode at 37° C. in the dark for 10 minutes before experiments. Fluorescence of calcium transients was recorded using a photomultiplier (PTi D-104) at 35° C. and the analog signals were digitized using Digidata 1440 (Molecular Devices) and analyzed with pCLAMP 10.5 software.
To investigate the spontaneous calcium transients of the SAN, intact SAN tissue preparations dissected ex vivo from WT and CASQ2-D307H KI mice were exposed to Fluo-4 AM as previously described [Torrente, A. G., et al. Proc Natl Acad Sci USA 112, 9769-9774 (2015)].
FIG. 6B presents representative traces of different types of calcium transient abnormalities recorded in intact SAN from CASQ2 D307H KI mice, termed as “local Ca^2+ release” (upper left), “double humped transients” (upper right), “large-stored released Ca^2+ waves” (lower left) and “calcium alternans” (lower right).
FIG. 6C presents representative trace of spontaneous calcium transients recorded from intact SAN of CASQ2 D307H KI. The baseline rate of calcium transients (control, black trace) yielded chaotic calcium transients (red trace) following incubation of the SAN with 100 nM isoproterenol.

[4] = tested on: SAN cells from CASQ2-D307H KI mice; assay: Spontaneous APs and DADs of isolated SAN cells from CASQ2 D307H KI mice; assay type: cell-based, mouse; settings: 2 μM TRAM-34 added to 50 nM isoproterenol
Procedure: WT and CASQ2 D307H KI mice were anesthetized with isofluorane and sacrificed by cervical dislocation. The heart was rapidly removed and transferred into Tyrode solution containing heparin. […] The area was cleaned, cut into small strips and washed into a Low Calcium Solution, containing (in mM): 140 NaCl, 5.4 KCl, 0.5 MgCl2, 1.2 KH2PO4, 5 HEPES-NaOH, 50 taurine, 5.5 glucose (pH 6.9). The osmolarity was adjusted if needed to 315 mOsm.
The same solution, supplemented with 1 mg/ml albumin, 200 μM CaCl2, collagenase Type I (Worthington) or liberase TH (Roche), protease (Sigma) and elastase (Sigma) was used for enzymatic digestion as previously described [See, Mesirca, P., et al. Nat Commun 5, 4664 (2014)]. In this step, the tissue was gently resuspended with a polished Pasteur pipette in this solution for 9-13 minutes at 37° C. SAN samples were then washed three times in a modified “Kraftbrühe” solution, containing (in mM): 70 glutamic acid, 80 KOH, 20 KCl, 10 γ-Hydroxybutyric acid sodium salt, 10 KH2PO4, 10 HEPES-KOH, 10 taurine, 1 mg/ml albumin, 0.1 EGTA-KOH (pH 7.2). […] Cells were then gradually exposed to increasing concentrations of calcium, following a “Ca^2+ readaptation” protocol [Mesirca et al., 2014, supra]. […]
FIG. 5F (Left) presents representative traces of spontaneous APs recorded in single SAN cell from CASQ2 D307H KI mice. […]

SMILES: Clc1ccccc1C(c1ccccc1)(c1ccccc1)n1cccn1 [TRAM-34, 1-[(2-chlorophenyl)diphenylmethyl]-1H-pyrazole]
- cells with suppression of the pacing [1]: 10 out of 14
- maximal diastolic potential (MDP) [1]: depolarized the maximal diastolic potential
- slope of diastolic depolarization (DD) [1]: significantly decreased the slope of diastolic depolarization
- If and INCX currents [2]: unaffected
- number of SANs displaying double humped transients or large-stored released Ca2+ waves [3]: zero
- shapes of isoproterenol induced aberrant calcium waves [3]: normalized the shapes of isoproterenol induced aberrant calcium waves
- occurrence of DADs [4]: drastically reduced
